Test results taken from patent EP0051773A1, “Penicillins, their salts, process for their preparation and pharmaceutical compositions containing them” (Dr. Karl Thomae GmbH, priority 1980, dated 1982).
Converted amounts (≈) assume the structure as drawn.

What was measured:
E.coli ATCC 11 775 = assay: experimental intraperitoneal infection in mice, ED50 (survival); assay type: in vivo, Mäuse; conditions: Escherichia coli, ATCC 11 / ATCC 1175, sc, 168 h; female NMRI mice, i.p. infection, s.c. application, treated once, 7 days observation
Method: Eine Reihe der erfindungsgemäßen Verbindungen wurde in vivo bei experimentellen Infektionen an Mäusen untersucht. Man verwendete als pathogene Bakterien E.coli ATCC 11 775 und Pseudomonas aeruginosa Walter. Es wurde eine intraperitoneale Infektion mit 0,2 ml einer 5%igen Mucinsuspension der Bakterien gesetzt. Dies entspricht etwa 2x10^6 Keime E.coli bzw. 8x10^5 Keime Pseudomonas/Maus. Weibliche Mäuse vom Stamm NMRI wurden in Gruppen von jeweils 10 Tieren aufgeteilt, zwei Gruppen blieben unbehandelt, die restlichen Gruppen wurden mit verschiedenen Dosen der jeweiligen erfindungsgemäßen Penicilline zur Bestimmung der ED50 (Dosis, bei der 50 % der Tiere überleben) behandelt. Bei der E.coli-Infektion wurde einmal therapiert. Bei der Pseudomonas-Infektion wurde dreimal behandelt.
Der Beobachtungszeitraum betrug in beiden Fällen 7 Tage. Die Ergebnisse dieser Teste mit repräsentativen Vertretern der erfindungsgemäßen Penicilline sind in der Tabelle 3 dargestellt.

[1] = system: Klebsiella pneumoniae ATCC 10 031; assay: serial dilution test in microtiter system (bacteriostasis, MIC); assay type: cell-based; conditions: ATCC10, liquid medium, 18 to 20 h at 37°C, read-out: MHK-Werte Kl. pneum. ATCC 10 031
Method: (§1) Für die Untersuchungen wurde die Methode des Reihenverdünnungstestes im Mikrotitersystem angewandt. Die Prüfung der Substanzen auf Bakteriostase erfolgte in flüssigem Medium. Es wurde die Bakteriostasewirkung bei folgenden Konzentrationen untersucht.
(§2) Es wurde ein Nährboden folgender Zusammensetzung benutzt: 10 g Pepton, 8 g Fleischextrakt-Oxoid, 3 g Natriumschlorid, 2 g sek. Natriumphosphat werden mit dest. Wasser auf 1000 ml aufgefüllt (pH 7,2-7,4). Lediglich bei der Testung gegen Streptokokken wurde 1% Glucose hinzugefügt. Das Alter der Primärkulturen betrug etwa 20 Stunden. Die Einstellung der Keimsuspension erfolgte am Photometer (nach "Eppendorf") (Reagenzglas-Durchmesser 14 mm, Filter 546 nm) anhand der Trübung einer Bariumsulfat-Vergleichssuspension, die durch eine Bariumsulfat-Aufschwemmung erzeugt wurde, welche durch die Zugabe von 3,0 ml 1%ige Bariumchloridlösung in 97 ml 1%ige Schwefelsäure entstand. Nach der Einstellung wurden Streptococcus Aronson im Verhältnis 1:15 und die übrigen Testkeime im Verhältnis 1:1500 mit einer Kochsalzlösung weiter verdünnt.
(§3) 16 mg der jeweiligen Substanz wurden in 10 ml-Meßkolben eingewogen und mit dem Lösungsmittel bis zur Marke aufgefüllt. Die weitere Verdünnungsreihe wurde mit destilliertem Wasser oder dem jeweiligen Lösungsmittel hergestellt.
(§4) Die Vertiefungen der Mikrotiterplatten wurden mit 0,2 ml Nährmedium, 0,01 ml der entsprechenden Substanzverdünnung und mit einem Tropfen Keimsuspension (0,01 ml) beschickt und 18 bis 20 Stunden bei 37°C bebrütet. Eine Lösungsmittelkontrolle wurde stets mitgeführt.
(§5) Die Ablesung wurde makroskopisch vorgenommen, wobei die jeweilige Grenkonzentration (= niedrigste noch bakteriostatisch wirksame Konzentration) ermittelt wurde.
(§6) Als Testorganismen wurden benützt: - Staphylococcus aureus SG 511, Escherichia coli ATCC 11 775, Pseudomonas aeruginosa Hamburgensis und Walter, Serratia marcescens ATCC 13 880, Klebsiella pneumoniae ATCC 10 031 und BC 6, Proteus mirabilis Hamburgensis, Proteus rettgeri BC 7 und Enterobacter cloacae ATCC 13 047.
(§7) In der folgenden Tabelle 2 sind die ermittelten minimalen Hemmkonzentrationen (MIC) für typische Vertreter der erfindungsgemäßen Verbindungen aufgeführt, wobei sich die Ziffern auf die Penicilline der Tabelle 1 Seite 18 beziehen.

[2] = system: Enterobacter cloacae ATCC 13 047; assay: as above; assay type: cell-based; conditions: ATCC13, liquid medium, 18 to 20 h at 37°C, read-out: MHK-Werte Eb. cloacae 13 047
Method: as §1, §2, §3, §4, §5, §6, §7

[3] = system: Proteus mirabilis Hamburgensis; assay: as above; assay type: cell-based; conditions: liquid medium, 18 to 20 h at 37°C, read-out: MHK-Werte Prot. mir. Hbg.
Method: as §1, §2, §3, §4, §5, §6, §7

[4] = system: Pseudomonas aeruginosa Hamburgensis; assay: as above; assay type: cell-based; conditions: liquid medium, 18 to 20 h at 37°C, read-out: MHK-Werte Pseud. aerug. Hbg.
Method: as §1, §2, §3, §4, §5, §6, §7

[5] = system: Pseudomonas aeruginosa Walter; assay: as above; assay type: cell-based; conditions: liquid medium, 18 to 20 h at 37°C, read-out: MHK-Werte Pseud. aerug. Walter
Method: as §1, §2, §3, §4, §5, §6, §7

Proteus rettgeri BC 7 = assay: as above; assay type: cell-based; conditions: Providencia rettgeri, BC7; liquid medium, 18 to 20 h at 37°C; read-out: MHK-Werte Prot. rettg. BC 7
Method: as §1, §2, §3, §4, §5, §6, §7

[6] = system: Escherichia coli ATCC 11 775; assay: as above; assay type: cell-based; conditions: ATCC11, liquid medium, 18 to 20 h at 37°C, read-out: MHK-Werte E.coli ATCC 11 755
Method: as §1, §2, §3, §4, §5, §6, §7

[7] = system: Klebsiella pneumoniae BC 6; assay: as above; assay type: cell-based; conditions: BC6, liquid medium, 18 to 20 h at 37°C, read-out: MHK-Werte Kl. pneum. BC 6
Method: as §1, §2, §3, §4, §5, §6, §7

[8] = system: Serratia marcescens ATCC 13 880; assay: as above; assay type: cell-based; conditions: ATCC13, liquid medium, 18 to 20 h at 37°C, read-out: MHK-Werte Serr. marcesc. ATCC 13 880
Method: as §1, §2, §3, §4, §5, §6, §7

[9] = system: Staphylococcus aureus SG 511; assay: as above; assay type: cell-based; conditions: SG511, liquid medium, 18 to 20 h at 37°C, read-out: MHK-Werte Staph. aureus SG 511
Method: as §1, §2, §3, §4, §5, §6, §7

Row | Structure (SMILES) | ED50 (E.coli ATCC 11 775) [mg/kg] | MIC [1] [µg/mL] | MIC [2] [µg/mL] | MIC [3] [µg/mL] | MIC [4] [µg/mL] | MIC [5] [µg/mL] | MIC (Proteus rettgeri BC 7) [µg/mL] | MIC [6] [µg/mL] | MIC [7] [µg/mL] | MIC [8] [µg/mL] | MIC [9] [µg/mL]
1 | CCCCNS(=O)(=O)c1ccc(Nc2ncc(NC(=O)N[C@@H](C(=O)N[C@@H]3C(=O)N4[C@@H]3SC(C)(C)[C@@H]4C(=O)O)c3ccc(O)cc3)c(O)n2)cc1 [Verbindung 20] | 6.6 |  |  |  |  |  |  |  |  |  | 
2 | CC1(C)SC2C(NC(=O)C(NC(=O)Nc3cnc(Nc4ccc(S(C)(=O)=O)cc4)nc3O)c3ccc(O)c(Cl)c3)C(=O)N2C1C(=O)O (stereo not drawn) [Verbindung 25] |  | 1 (≈ 1.42 µM) | 4 (≈ 5.66 µM) | 0.12 (≈ 0.17 µM) | 2 (≈ 2.83 µM) | 2 (≈ 2.83 µM) | 0.5 (≈ 0.708 µM) | 0.25 (≈ 0.354 µM) | 1 (≈ 1.42 µM) | 0.25 (≈ 0.354 µM) | 0.25 (≈ 0.354 µM)
3 | CCCCS(=O)(=O)c1ccc(Nc2ncc(NC(=O)NC(C(=O)NC3C(=O)N4C3SC(C)(C)C4C(=O)O)c3ccc(O)cc3)c(O)n2)cc1 (stereo not drawn) [Verbindung 32] |  | 1 (≈ 1.4 µM) | 1 (≈ 1.4 µM) | 0.06 (≈ 0.0841 µM) | 2 (≈ 2.8 µM) | 1 (≈ 1.4 µM) | 0.25 (≈ 0.35 µM) | 0.12 (≈ 0.168 µM) | 0.5 (≈ 0.7 µM) | 0.12 (≈ 0.168 µM) | 0.12 (≈ 0.168 µM)
4 | CC1(C)SC2C(NC(=O)C(NC(=O)Nc3cnc(Nc4ccc(C(N)=O)cc4)nc3O)c3ccc(O)c(Cl)c3)C(=O)N2C1C(=O)O (stereo not drawn) [Verbindung 35] |  | 4 (≈ 5.96 µM) | 4 (≈ 5.96 µM) | 0.25 (≈ 0.373 µM) | 2 (≈ 2.98 µM) | 4 (≈ 5.96 µM) | 0.5 (≈ 0.745 µM) | 0.5 (≈ 0.745 µM) | 4 (≈ 5.96 µM) | 0.5 (≈ 0.745 µM) | 0.5 (≈ 0.745 µM)
5 | CC1(C)SC2C(NC(=O)C(NC(=O)Nc3cnc(Nc4ccc(S(N)(=O)=O)c(O)c4)nc3O)c3ccc(O)c(Cl)c3)C(=O)N2C1C(=O)O (stereo not drawn) [Verbindung 49] |  | 1 (≈ 1.38 µM) | 1 (≈ 1.38 µM) | 0.12 (≈ 0.166 µM) | 2 (≈ 2.77 µM) | 2 (≈ 2.77 µM) | 0.5 (≈ 0.691 µM) | 0.25 (≈ 0.346 µM) | 1 (≈ 1.38 µM) | 0.25 (≈ 0.346 µM) | 0.25 (≈ 0.346 µM)
6 | CC1(C)S[C@@H]2[C@H](NC(=O)C(NC(=O)Nc3cnc(Nc4ccc(C(N)=O)c(C(N)=O)c4)nc3O)c3ccc(O)cc3)C(=O)N2[C@H]1C(=O)O (stereo partly drawn) [Verbindung 55] |  | 2 (≈ 2.94 µM) | 2 (≈ 2.94 µM) | 0.12 (≈ 0.177 µM) | 1 (≈ 1.47 µM) | 1 (≈ 1.47 µM) | 0.5 (≈ 0.736 µM) | 0.25 (≈ 0.368 µM) | 4 (≈ 5.89 µM) | 0.25 (≈ 0.368 µM) | 0.25 (≈ 0.368 µM)
7 | CC(=O)Oc1ccc(CNc2ncc(NC(=O)NC(C(=O)N[C@@H]3C(=O)N4[C@@H]3SC(C)(C)[C@@H]4C(=O)O)c3ccc(O)cc3)c(O)n2)cc1 (stereo partly drawn) [Verbindung 59] |  | 4 (≈ 6.01 µM) | 2 (≈ 3 µM) | 0.06 (≈ 0.0901 µM) | 2 (≈ 3 µM) | 2 (≈ 3 µM) | 1 (≈ 1.5 µM) | 0.5 (≈ 0.751 µM) | 4 (≈ 6.01 µM) | 0.5 (≈ 0.751 µM) | 0.5 (≈ 0.751 µM)
8 | CC1(C)S[C@@H]2[C@H](NC(=O)C(NC(=O)Nc3cnc(NCc4ccc(F)cc4)nc3O)c3ccc(O)cc3)C(=O)N2[C@H]1C(=O)O (stereo partly drawn) [Verbindung 60] |  | 2 (≈ 3.2 µM) | 1 (≈ 1.6 µM) | 0.25 (≈ 0.4 µM) | 2 (≈ 3.2 µM) | 2 (≈ 3.2 µM) | 0.5 (≈ 0.799 µM) | 0.25 (≈ 0.4 µM) | 2 (≈ 3.2 µM) | 0.5 (≈ 0.799 µM) | 0.25 (≈ 0.4 µM)
9 | CC1(C)S[C@@H]2[C@H](NC(=O)C(NC(=O)Nc3cnc(NCc4ccccc4)nc3O)c3ccccc3)C(=O)N2[C@H]1C(=O)O (stereo partly drawn) [Verbindung 61] |  | 1 (≈ 1.69 µM) | 1 (≈ 1.69 µM) | 0.25 (≈ 0.423 µM) | 2 (≈ 3.38 µM) | 2 (≈ 3.38 µM) | 0.5 (≈ 0.845 µM) | 0.25 (≈ 0.423 µM) | 2 (≈ 3.38 µM) | 0.5 (≈ 0.845 µM) | 0.25 (≈ 0.423 µM)
